Values joined by “and” are separate entries in the source; they are usually repeats but may differ in a detail not shown here. Equal entries are not always repeated.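 How tested: cells in 96-well plates exposed to compound for 48 hours at five concentrations. At the GI50, growth is halved.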 Active and inactive are the calls of the source. Cut-off read from the data, not from the text of the source: active = GI50 up to about 1.1 µM and inactive = higher.
Assays:
Assay in all cases: inhibition of tumour cell growth, NCI panel, 48 h
OVCAR-5 = test system: OVCAR-5
SK-OV-3 = test system: SK-OV-3
SW-620 = test system: SW-620
K562 = test system: K562
786-0 = test system: 786-0
HCT-116 = test system: HCT-116
UACC-62 = test system: UACC-62
EKVX = test system: EKVX
SR = test system: SR
NCI-H522 = test system: NCI-H522
HT-29 = test system: HT-29
OVCAR-3 = test system: OVCAR-3
LOX IMVI = test system: LOX IMVI
SK-MEL-2 = test system: SK-MEL-2
HL-60 = test system: HL-60
SNB-19 = test system: SNB-19
SF-268 = test system: SF-268
Malme-3M = test system: Malme-3M
HCC 2998 = test system: HCC 2998
UACC-257 = test system: UACC-257

Row | Compound | GI50 (OVCAR-5) | GI50 (SK-OV-3) | GI50 (SW-620) | GI50 (K562) | GI50 (786-0) | GI50 (HCT-116) | GI50 (UACC-62) | GI50 (EKVX) | GI50 (SR) | GI50 (NCI-H522) | GI50 (HT-29) | GI50 (OVCAR-3) | GI50 (LOX IMVI) | GI50 (SK-MEL-2) | GI50 (HL-60) | GI50 (SNB-19) | GI50 (SF-268) | GI50 (Malme-3M) | GI50 (HCC 2998) | GI50 (UACC-257)
1 | Cc1cc(C)c2c(c1)CN1CN2Cc2cc(C)cc(C)c21 | 55.1 µM (inactive) | 27.8 µM (inactive) | 31.5 µM (inactive) | 27.7 µM (inactive) | 17.2 µM (inactive) | 19.4 µM (inactive) | 16 µM (inactive) | 16.9 µM (inactive) | 18.8 µM (inactive) | 29 µM (inactive) | 16.3 µM (inactive) | 14.8 µM (inactive) | 17 µM (inactive) | > 10 µM (inactive) | 26.4 µM (inactive) | < 0.01 µM (active) | 31.6 µM (inactive) | – | – | –
2 | Cc1cc(=O)n(-c2c(C)cccc2Cl)c(/C=C(\O)c2ccncc2)n1 | 98.6 µM (inactive) | > 100 µM (inactive) | > 100 µM (inactive) | 44.8 µM (inactive) | > 100 µM (inactive) | > 100 µM (inactive) | > 100 µM (inactive) | > 100 µM (inactive) | – | > 100 µM (inactive) | > 100 µM (inactive) | > 100 µM (inactive) | > 100 µM (inactive) | > 100 µM (inactive) | 6.21 µM (inactive) | > 100 µM (inactive) | > 100 µM (inactive) | > 100 µM (inactive) | > 100 µM (inactive) | > 100 µM (inactive)
3 | CC1=NC(=N)N=C(C)C1/N=N/c1ccc2[nH]c(C)nc2c1 (centres undefined) | > 100 µM (inactive) | > 100 µM (inactive) | > 100 µM (inactive) | > 100 µM (inactive) | > 100 µM (inactive) | > 100 µM (inactive) | > 100 µM (inactive) | > 100 µM (inactive) | – | > 100 µM (inactive) | > 100 µM (inactive) | > 100 µM (inactive) | > 100 µM (inactive) | > 100 µM (inactive) | > 100 µM (inactive) | > 100 µM (inactive) | > 100 µM (inactive) | > 100 µM (inactive) | > 100 µM (inactive) | > 100 µM (inactive)
4 | COc1cc([C@@H]2c3cc4c(cc3[C@@H](NCc3cccc(C#N)c3)C3COC(=O)[C@@H]32)OCO4)cc(OC)c1O (some centres undefined) | 2.84 µM (inactive) | 1.53 µM (inactive) | 0.646 µM (active) | 1.83 µM (inactive) | 1.02 µM (active) | 2.12 µM (inactive) | 0.524 µM (active) | 2.39 µM (inactive) | – | 1.46 µM (inactive) | 1.48 µM (inactive) | 2.57 µM (inactive) | 1.27 µM (inactive) | 3.77 µM (inactive) | 0.149 µM (active) | 1.1 µM (active) | 2.22 µM (inactive) | 2.18 µM (inactive) | 1.48 µM (inactive) | 6.64 µM (inactive)
5 | COC(=O)[C@@H]1CC(C(C[N+](=O)[O-])c2ccc(O[Si](C)(C)C(C)(C)C)cc2)C(=O)N1C(=O)OC(C)(C)C (some centres undefined) | > 100 µM (inactive) | > 100 µM (inactive) | > 100 µM (inactive) | 22.9 µM (inactive) and 32.4 µM (inactive) | > 100 µM (inactive) | 63.1 µM (inactive) | – | > 100 µM (inactive) and 61.5 µM (inactive) | 21 µM (inactive) and 33.8 µM (inactive) | 53.2 µM (inactive) and 60.5 µM (inactive) | – | > 100 µM (inactive) | > 100 µM (inactive) | > 100 µM (inactive) | – | > 100 µM (inactive) | > 100 µM (inactive) and 95.3 µM (inactive) | > 100 µM (inactive) and 97.9 µM (inactive) | – | > 100 µM (inactive) and 88.7 µM (inactive)
6 | OCc1cc2c([nH]c3ccccc32)c(C(O)CO)n1 (centres undefined) | > 100 µM (inactive) | > 100 µM (inactive) | > 100 µM (inactive) | > 100 µM (inactive) | > 100 µM (inactive) | > 100 µM (inactive) | > 100 µM (inactive) | > 100 µM (inactive) | – | > 100 µM (inactive) | > 100 µM (inactive) | > 100 µM (inactive) | > 100 µM (inactive) | > 100 µM (inactive) | > 100 µM (inactive) | > 100 µM (inactive) | > 100 µM (inactive) | > 100 µM (inactive) | > 100 µM (inactive) | > 100 µM (inactive)
7 | Cc1cccc(N(CC(=O)O)S(=O)(=O)c2ccccc2)c1 | > 100 µM (inactive) | > 100 µM (inactive) | > 100 µM (inactive) | > 100 µM (inactive) | > 100 µM (inactive) | – | > 100 µM (inactive) | > 100 µM (inactive) | – | > 100 µM (inactive) | > 100 µM (inactive) | > 100 µM (inactive) | > 100 µM (inactive) | > 100 µM (inactive) | > 100 µM (inactive) | > 100 µM (inactive) | > 100 µM (inactive) | > 100 µM (inactive) | > 100 µM (inactive) | > 100 µM (inactive)
8 | COC(=O)C(=O)C(C(=O)C(=O)Nc1cccc(OC)c1)c1nc2ccc(Cl)cc2nc1O (centres undefined) | > 100 µM (inactive) | > 100 µM (inactive) | > 100 µM (inactive) | > 100 µM (inactive) | > 100 µM (inactive) | > 100 µM (inactive) | 89.3 µM (inactive) | 27.6 µM (inactive) | – | > 100 µM (inactive) | > 100 µM (inactive) | > 100 µM (inactive) | > 100 µM (inactive) | > 100 µM (inactive) | > 100 µM (inactive) | > 100 µM (inactive) | > 100 µM (inactive) | > 100 µM (inactive) | 96.2 µM (inactive) | > 100 µM (inactive)
9 | Cc1cc(C)c(O)c(Cc2cccc(Cc3cc(C)cc(C)c3O)c2O)c1 | > 100 µM (inactive) | > 100 µM (inactive) | > 100 µM (inactive) | 35.9 µM (inactive) | > 100 µM (inactive) | > 100 µM (inactive) | > 100 µM (inactive) | > 100 µM (inactive) | 77.6 µM (inactive) | > 100 µM (inactive) | > 100 µM (inactive) | > 100 µM (inactive) | > 100 µM (inactive) | > 100 µM (inactive) | – | > 100 µM (inactive) | > 100 µM (inactive) | > 100 µM (inactive) | – | > 100 µM (inactive)
10 | Cn1c(=O)c2c(ncn2Cc2ccc(O)c([N+](=O)[O-])c2)n(C)c1=O | > 100 µM (inactive) | > 100 µM (inactive) | > 100 µM (inactive) | > 100 µM (inactive) | > 100 µM (inactive) | > 100 µM (inactive) | > 100 µM (inactive) | > 100 µM (inactive) | > 100 µM (inactive) | > 100 µM (inactive) | > 100 µM (inactive) | > 100 µM (inactive) | > 100 µM (inactive) | > 100 µM (inactive) | > 100 µM (inactive) | > 100 µM (inactive) | > 100 µM (inactive) | – | – | > 100 µM (inactive)
11 | CCOC(=O)[C@]12C3C=CC(C3)C1C(=O)C1OC12 (some centres undefined) | > 100 µM (inactive) | > 100 µM (inactive) | > 100 µM (inactive) | > 100 µM (inactive) | > 100 µM (inactive) | > 100 µM (inactive) | > 100 µM (inactive) | > 100 µM (inactive) | – | > 100 µM (inactive) | > 100 µM (inactive) | > 100 µM (inactive) | > 100 µM (inactive) | > 100 µM (inactive) | > 100 µM (inactive) | > 100 µM (inactive) | > 100 µM (inactive) | > 100 µM (inactive) | > 100 µM (inactive) | > 100 µM (inactive)
12 | CC(=O)N1CC2Nc3ccccc3C2CC1CO (centres undefined) | > 100 µM (inactive) | > 100 µM (inactive) | > 100 µM (inactive) | > 100 µM (inactive) | > 100 µM (inactive) | > 100 µM (inactive) | > 100 µM (inactive) | > 100 µM (inactive) | – | > 100 µM (inactive) | > 100 µM (inactive) | > 100 µM (inactive) | > 100 µM (inactive) | > 100 µM (inactive) | > 100 µM (inactive) | > 100 µM (inactive) | > 100 µM (inactive) | > 100 µM (inactive) | > 100 µM (inactive) | > 100 µM (inactive)
13 | CC(=O)O[C@]12CCCCCC1C1(O)C(O)CCCCC12 (some centres undefined) | – | > 100 µM (inactive) | > 100 µM (inactive) | > 100 µM (inactive) | > 100 µM (inactive) | – | > 100 µM (inactive) | > 100 µM (inactive) | > 100 µM (inactive) | > 100 µM (inactive) | > 100 µM (inactive) | – | > 100 µM (inactive) | > 100 µM (inactive) | > 100 µM (inactive) | > 100 µM (inactive) | > 100 µM (inactive) | > 100 µM (inactive) | – | > 100 µM (inactive)
14 | CC(C)N(C(=O)C12C3C4C1C1C2C3C41C(=O)N(C(C)C)C(C)C)C(C)C (centres undefined) | > 50 µM (inactive) | > 50 µM (inactive) | > 50 µM (inactive) | > 50 µM (inactive) | > 50 µM (inactive) | > 50 µM (inactive) | > 50 µM (inactive) | > 50 µM (inactive) | – | > 50 µM (inactive) | > 50 µM (inactive) | > 50 µM (inactive) | > 50 µM (inactive) | > 50 µM (inactive) | > 50 µM (inactive) | > 50 µM (inactive) | > 50 µM (inactive) | > 50 µM (inactive) | > 50 µM (inactive) | > 50 µM (inactive)
15 | CCOP(=O)(OCC)OC1c2[nH]ccc2-c2cc(C(=O)OC)[nH]c2C1OC (centres undefined) | > 100 µM (inactive) | > 100 µM (inactive) | > 100 µM (inactive) | > 100 µM (inactive) | > 100 µM (inactive) | > 100 µM (inactive) | 45.8 µM (inactive) | > 100 µM (inactive) | – | > 100 µM (inactive) | > 100 µM (inactive) | > 100 µM (inactive) | > 100 µM (inactive) | > 100 µM (inactive) | 62.1 µM (inactive) | > 100 µM (inactive) | > 100 µM (inactive) | > 100 µM (inactive) | > 100 µM (inactive) | > 100 µM (inactive)

Source: ChEMBL document CHEMBL1201862, “PubChem BioAssay data set” (2004)
